# Assay results reported in ChEMBL document CHEMBL1201862, “PubChem BioAssay data set” (2004).
#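 In this assay, cells in 96-well plates receive the compound at five concentrations for 48 hours. Endpoints are linearly interpolated between the surrounding concentrations. Here, GI50 denotes the concentration required for 50% inhibition of growth.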 Active and inactive are the calls of the source. No stated cut-off is given here; in the data, active = GI50 up to about 1.1 µM and inactive = higher.
# Tests used:
# Assay in all cases: NCI tumour cell line growth inhibition, 48 h
# 786-0 = test system: 786-0
# A498 = test system: A498
# A549 = test system: A549
# ACHN = test system: ACHN
# CAKI-1 = test system: CAKI-1
# CCRF-CEM = test system: CCRF-CEM
# COLO 205 = test system: COLO 205
# DLD-1 = test system: DLD-1
# DMS-114 = test system: DMS-114
# DMS-273 = test system: DMS-273
# EKVX = test system: EKVX
# HCC 2998 = test system: HCC 2998
# HCT-116 = test system: HCT-116
# HCT-15 = test system: HCT-15
# HL-60 = test system: HL-60
# HOP-18 = test system: HOP-18
# HOP-62 = test system: HOP-62
# HT-29 = test system: HT-29
# IGROV-1 = test system: IGROV-1
# K562 = test system: K562
# KM-20L2 = test system: KM-20L2
# KM12 = test system: KM12
# LOX IMVI = test system: LOX IMVI
# LXFL 529 = test system: LXFL 529
# M14 = test system: M14
# M19-MEL = test system: M19-MEL
# MOLT-4 = test system: MOLT-4
# Malme-3M = test system: Malme-3M
# NCI-H226 = test system: NCI-H226
# NCI-H23 = test system: NCI-H23
# NCI-H460 = test system: NCI-H460
# OVCAR-3 = test system: OVCAR-3
# OVCAR-4 = test system: OVCAR-4
# OVCAR-5 = test system: OVCAR-5
# OVCAR-8 = test system: OVCAR-8
# RPMI-8226 = test system: RPMI-8226
# RXF 393 = test system: RXF 393
# SF-268 = test system: SF-268
# SF-295 = test system: SF-295
# SF-539 = test system: SF-539
# SK-MEL-28 = test system: SK-MEL-28
# SK-MEL-2 = test system: SK-MEL-2
# SK-MEL-5 = test system: SK-MEL-5
# SN12C = test system: SN12C
# SNB-75 = test system: SNB-75
# SNB-78 = test system: SNB-78
# SR = test system: SR
# SW-620 = test system: SW-620
# TK-10 = test system: TK-10
# U-251 = test system: U-251
# UACC-257 = test system: UACC-257
# UACC-62 = test system: UACC-62
# UO-31 = test system: UO-31
# XF498 = test system: XF498
# NCI-H522 = test system: NCI-H522
# SNB-19 = test system: SNB-19
# HOP-92 = test system: HOP-92
# SK-OV-3 = test system: SK-OV-3
structure (smiles),measurement,setting,value
COc1ccc(-c2cc(C(=O)Nc3cc(C(F)(F)F)cc(C(F)(F)F)c3)c3ccccc3n2)cc1,GI50,786-0,11.7 µM (inactive)
same,GI50,A498,15.1 µM (inactive)
same,GI50,A549,4.71 µM (inactive)
same,GI50,ACHN,12.5 µM (inactive)
same,GI50,CAKI-1,11.3 µM (inactive)
same,GI50,CCRF-CEM,7.6 µM (inactive)
same,GI50,COLO 205,13.4 µM (inactive)
same,GI50,DLD-1,11.4 µM (inactive)
same,GI50,DMS-114,6.56 µM (inactive)
same,GI50,DMS-273,8.36 µM (inactive)
same,GI50,EKVX,9.06 µM (inactive)
same,GI50,HCC 2998,11.4 µM (inactive)
same,GI50,HCT-116,6.19 µM (inactive)
same,GI50,HCT-15,11.4 µM
same,GI50,HL-60,21.3 µM (inactive)
same,GI50,HOP-18,17.7 µM (inactive)
same,GI50,HOP-62,12.8 µM (inactive)
same,GI50,HT-29,9.06 µM (inactive)
same,GI50,IGROV-1,12.6 µM (inactive)
same,GI50,K562,4.89 µM (inactive)
same,GI50,KM-20L2,7.08 µM (inactive)
same,GI50,KM12,13.2 µM (inactive)
same,GI50,LOX IMVI,13.4 µM (inactive)
same,GI50,LXFL 529,8.83 µM (inactive)
same,GI50,M14,10.2 µM (inactive)
same,GI50,M19-MEL,17.2 µM (inactive)
same,GI50,MOLT-4,14.2 µM (inactive)
same,GI50,Malme-3M,17.9 µM (inactive)
same,GI50,NCI-H226,17.1 µM (inactive)
same,GI50,NCI-H23,5.9 µM (inactive)
same,GI50,NCI-H460,5.42 µM (inactive)
same,GI50,OVCAR-3,4.93 µM (inactive)
same,GI50,OVCAR-4,8.3 µM (inactive)
same,GI50,OVCAR-5,24.7 µM (inactive)
same,GI50,OVCAR-8,4.27 µM (inactive)
same,GI50,RPMI-8226,6.27 µM (inactive)
same,GI50,RXF 393,5.12 µM (inactive)
same,GI50,SF-268,14.4 µM (inactive)
same,GI50,SF-295,10.3 µM (inactive)
same,GI50,SF-539,12.3 µM (inactive)
same,GI50,SK-MEL-28,27.7 µM (inactive)
same,GI50,SK-MEL-2,12.9 µM (inactive)
same,GI50,SK-MEL-5,18 µM (inactive)
same,GI50,SN12C,10.6 µM (inactive)
same,GI50,SNB-75,13.7 µM (inactive)
same,GI50,SNB-78,19.5 µM (inactive)
same,GI50,SR,4.29 µM (inactive)
same,GI50,SW-620,7.94 µM (inactive)
same,GI50,TK-10,13.9 µM (inactive)
same,GI50,U-251,4.28 µM (inactive)
same,GI50,UACC-257,17.6 µM (inactive)
same,GI50,UACC-62,21.6 µM (inactive)
same,GI50,UO-31,24.5 µM (inactive)
same,GI50,XF498,7.31 µM (inactive)
O=[N+]([O-])c1ccc(-c2noc(-c3ccc(Cl)cc3)c2C2=NCCN2)cc1,GI50,786-0,> 100 µM (inactive)
same,GI50,A549,> 100 µM (inactive)
same,GI50,ACHN,> 100 µM (inactive)
same,GI50,CAKI-1,> 100 µM (inactive)
same,GI50,CCRF-CEM,> 100 µM (inactive)
same,GI50,COLO 205,> 100 µM (inactive)
same,GI50,DLD-1,> 100 µM (inactive)
same,GI50,EKVX,> 100 µM (inactive)
same,GI50,HCC 2998,> 100 µM (inactive)
same,GI50,HCT-116,> 100 µM (inactive)
same,GI50,HCT-15,> 100 µM
same,GI50,HL-60,> 100 µM (inactive)
same,GI50,HOP-18,94.2 µM (inactive)
same,GI50,HOP-62,> 100 µM (inactive)
same,GI50,HT-29,> 100 µM (inactive)
same,GI50,IGROV-1,> 100 µM (inactive)
same,GI50,K562,> 100 µM (inactive)
same,GI50,KM-20L2,> 100 µM (inactive)
same,GI50,KM12,> 100 µM (inactive)
same,GI50,LOX IMVI,> 100 µM (inactive)
same,GI50,LXFL 529,> 100 µM (inactive)
same,GI50,M14,> 100 µM (inactive)
same,GI50,M19-MEL,> 100 µM (inactive)
same,GI50,MOLT-4,> 100 µM (inactive)
same,GI50,Malme-3M,> 100 µM (inactive)
same,GI50,NCI-H226,> 100 µM (inactive)
same,GI50,NCI-H460,> 100 µM (inactive)
same,GI50,NCI-H522,> 100 µM (inactive)
same,GI50,OVCAR-3,> 100 µM (inactive)
same,GI50,OVCAR-4,> 100 µM (inactive)
same,GI50,OVCAR-5,> 100 µM (inactive)
same,GI50,OVCAR-8,> 100 µM (inactive)
same,GI50,RPMI-8226,> 100 µM (inactive)
same,GI50,RXF 393,> 100 µM (inactive)
same,GI50,SF-268,> 100 µM (inactive)
same,GI50,SF-295,> 100 µM (inactive)
same,GI50,SF-539,> 100 µM (inactive)
same,GI50,SK-MEL-28,> 100 µM (inactive)
same,GI50,SK-MEL-2,> 100 µM (inactive)
same,GI50,SK-MEL-5,> 100 µM (inactive)
same,GI50,SN12C,> 100 µM (inactive)
same,GI50,SNB-19,> 100 µM (inactive)
same,GI50,SNB-78,> 100 µM (inactive)
same,GI50,SR,> 100 µM (inactive)
same,GI50,SW-620,> 100 µM (inactive)
same,GI50,U-251,> 100 µM (inactive)
same,GI50,UACC-257,> 100 µM (inactive)
same,GI50,UACC-62,> 100 µM (inactive)
same,GI50,UO-31,> 100 µM (inactive)
same,GI50,XF498,> 100 µM (inactive)
CC12CC(=O)OC(Cc3ccccc31)O2 (stereo unspecified),GI50,786-0,> 100 µM (inactive)
same,GI50,A549,> 100 µM (inactive)
same,GI50,ACHN,> 100 µM (inactive)
same,GI50,CCRF-CEM,> 100 µM (inactive)
same,GI50,COLO 205,> 100 µM (inactive)
same,GI50,DLD-1,> 100 µM (inactive)
same,GI50,DMS-114,> 100 µM (inactive)
same,GI50,DMS-273,> 100 µM (inactive)
same,GI50,EKVX,> 100 µM (inactive)
same,GI50,HCC 2998,> 100 µM (inactive)
same,GI50,HCT-116,> 100 µM (inactive)
same,GI50,HL-60,> 100 µM (inactive)
same,GI50,HOP-18,> 100 µM (inactive)
same,GI50,HOP-62,> 100 µM (inactive)
same,GI50,HOP-92,> 100 µM (inactive)
same,GI50,HT-29,> 100 µM (inactive)
same,GI50,IGROV-1,> 100 µM (inactive)
same,GI50,K562,> 100 µM (inactive)
same,GI50,KM-20L2,> 100 µM (inactive)
same,GI50,KM12,> 100 µM (inactive)
same,GI50,LOX IMVI,> 100 µM (inactive)
same,GI50,LXFL 529,> 100 µM (inactive)
same,GI50,M14,> 100 µM (inactive)
same,GI50,M19-MEL,> 100 µM (inactive)
same,GI50,MOLT-4,> 100 µM (inactive)
same,GI50,Malme-3M,> 100 µM (inactive)
same,GI50,NCI-H226,> 100 µM (inactive)
same,GI50,NCI-H23,> 100 µM (inactive)
same,GI50,NCI-H460,> 100 µM (inactive)
same,GI50,NCI-H522,> 100 µM (inactive)
same,GI50,OVCAR-3,> 100 µM (inactive)
same,GI50,OVCAR-8,> 100 µM (inactive)
same,GI50,RPMI-8226,> 100 µM (inactive)
same,GI50,RXF 393,> 100 µM (inactive)
same,GI50,SF-268,> 100 µM (inactive)
same,GI50,SF-295,> 100 µM (inactive)
same,GI50,SF-539,> 100 µM (inactive)
same,GI50,SK-MEL-28,> 100 µM (inactive)
same,GI50,SK-MEL-2,> 100 µM (inactive)
same,GI50,SK-OV-3,> 100 µM (inactive)
same,GI50,SN12C,> 100 µM (inactive)
same,GI50,SNB-19,> 100 µM (inactive)
same,GI50,SNB-75,> 100 µM (inactive)
same,GI50,SNB-78,> 100 µM (inactive)
same,GI50,SR,> 100 µM (inactive)
same,GI50,SW-620,> 100 µM (inactive)
same,GI50,TK-10,> 100 µM (inactive)
same,GI50,U-251,> 100 µM (inactive)
same,GI50,UACC-257,> 100 µM (inactive)
same,GI50,UACC-62,> 100 µM (inactive)
same,GI50,UO-31,> 100 µM (inactive)
same,GI50,XF498,> 100 µM (inactive)
